Our source for the IC50 and GI50 values is patent US20240116921A1, “LACTAM (HETERO)[…] DERIVATIVES AS INHIBITORS OF ERBB2” (EnLiven Therapeutics, Inc., priority 2020, published 2024).

Assay [1] has as its target T1, phosphorylated EGFR (pEGFR) (Homo sapiens, UniProt P00533).
T1 construct: performed to measure phosphorylated EGFR levels using A431 cells (10% FBS); endogenous in cells; host or cells: A431
As to the kind of experiment: Detection of phosphorylated EGFR (pEGFR) in EGF-stimulated A431 cells. The format is cell-based. To be noted: A431 cells (10% FBS), 4 hours incubation, EGF 30 ng/mL 10 minutes, AlphaLISA. The method, boiled down:
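AlphaLISA read-out of EGFR phosphorylation after a 10-min EGF pulse (30 ng/mL final). A431 cells (10% FBS) had been exposed to compound for 4 h at 37 °C. IC50 was fitted from % inhibition normalised to DMSO and staurosporine control lysates.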
(In general: Bead proximity is the source of the signal in Alpha formats.)

Assay [2] has as its target T2, phosphorylated ERBB2 (pERBB2) (Homo sapiens, UniProt P04626).
T2 construct: endogenous in cells; host or cells: BT-474
Put plainly: Detection of phosphorylated ERBB2 (pERBB2) by ELISA in BT-474 cells. The format is cell-based. To be noted: four hours incubation. In outline:
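Phospho-ERBB2 in lysates was quantified by sandwich ELISA (A450, TMB) after 4 h compound exposure at 37 °C of BT-474 cells seeded at 2.0×10^4 per well. Compounds tested at 10 µM to 0.01 nM final in four-fold steps; activity normalized to DMSO (0.1%) high and cell-free low controls.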
(In an ELISA, binding on a coated surface is turned into a signal by an enzyme label.)

Assay [3] deals with Ba/F3 ERBB2 A775_G776insYVMA (Homo sapiens, UniProt P04626, DUP772-775, cells depend on it). Put plainly: Cell viability assay, Ba/F3 ERBB2 A775_G776insYVMA. The format is cell-based, mouse. The note with it: Ba/F3 ERBB2 YVMA cells, cell viability, 72 hours, CellTiter Glo; Table B5; read-out: Ba/F3 ERBB2 YVMA, IC50. The method, boiled down:
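Viability after 72 h compound treatment (37 °C, 5% CO2) was quantified by CellTiter-Glo luminescence of intracellular ATP, with sigmoidal dose-response fitting. Cells were retrovirally engineered Ba/F3 lines whose growth depends on the mutant human ERBB2 in place of IL-3, plated at 3000 per well.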
(In general: ATP-based viability assays read luminescence as a measure of living cells.)

Where only a bound is given, the exact number is not on record here.

T1 sequence (P00533 25-1210): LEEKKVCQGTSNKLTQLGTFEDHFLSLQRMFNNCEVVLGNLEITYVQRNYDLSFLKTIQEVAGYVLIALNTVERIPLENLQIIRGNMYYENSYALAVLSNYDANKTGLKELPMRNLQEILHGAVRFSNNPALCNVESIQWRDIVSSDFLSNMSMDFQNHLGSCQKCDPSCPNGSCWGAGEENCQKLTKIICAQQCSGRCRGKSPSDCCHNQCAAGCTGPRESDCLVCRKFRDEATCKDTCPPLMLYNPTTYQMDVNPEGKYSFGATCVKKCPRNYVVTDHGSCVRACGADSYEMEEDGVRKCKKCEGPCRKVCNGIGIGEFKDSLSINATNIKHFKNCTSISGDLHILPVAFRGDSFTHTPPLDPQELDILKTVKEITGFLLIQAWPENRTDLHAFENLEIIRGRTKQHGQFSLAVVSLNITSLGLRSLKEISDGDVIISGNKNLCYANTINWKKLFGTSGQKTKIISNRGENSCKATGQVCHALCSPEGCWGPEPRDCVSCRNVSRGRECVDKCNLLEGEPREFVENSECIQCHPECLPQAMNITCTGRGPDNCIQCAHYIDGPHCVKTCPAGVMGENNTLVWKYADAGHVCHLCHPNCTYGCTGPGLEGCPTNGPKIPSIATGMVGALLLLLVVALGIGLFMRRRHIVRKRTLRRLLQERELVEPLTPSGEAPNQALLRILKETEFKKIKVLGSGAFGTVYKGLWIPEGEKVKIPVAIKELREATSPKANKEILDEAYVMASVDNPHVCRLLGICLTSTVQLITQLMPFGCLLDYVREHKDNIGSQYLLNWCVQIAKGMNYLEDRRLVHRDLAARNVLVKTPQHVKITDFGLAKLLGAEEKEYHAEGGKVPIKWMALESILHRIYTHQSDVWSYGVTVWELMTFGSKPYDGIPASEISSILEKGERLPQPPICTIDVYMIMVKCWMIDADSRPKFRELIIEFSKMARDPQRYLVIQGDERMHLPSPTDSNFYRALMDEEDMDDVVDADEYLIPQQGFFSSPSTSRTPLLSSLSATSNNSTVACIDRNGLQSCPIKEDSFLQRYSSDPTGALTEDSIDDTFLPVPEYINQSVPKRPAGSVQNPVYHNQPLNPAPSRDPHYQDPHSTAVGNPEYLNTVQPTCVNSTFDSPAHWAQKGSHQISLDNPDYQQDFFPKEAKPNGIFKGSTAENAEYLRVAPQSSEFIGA
Ba/F3 ERBB2 A775_G776insYVMA, sequence (P04626 with tags, fused parts or gaps DUP772-775): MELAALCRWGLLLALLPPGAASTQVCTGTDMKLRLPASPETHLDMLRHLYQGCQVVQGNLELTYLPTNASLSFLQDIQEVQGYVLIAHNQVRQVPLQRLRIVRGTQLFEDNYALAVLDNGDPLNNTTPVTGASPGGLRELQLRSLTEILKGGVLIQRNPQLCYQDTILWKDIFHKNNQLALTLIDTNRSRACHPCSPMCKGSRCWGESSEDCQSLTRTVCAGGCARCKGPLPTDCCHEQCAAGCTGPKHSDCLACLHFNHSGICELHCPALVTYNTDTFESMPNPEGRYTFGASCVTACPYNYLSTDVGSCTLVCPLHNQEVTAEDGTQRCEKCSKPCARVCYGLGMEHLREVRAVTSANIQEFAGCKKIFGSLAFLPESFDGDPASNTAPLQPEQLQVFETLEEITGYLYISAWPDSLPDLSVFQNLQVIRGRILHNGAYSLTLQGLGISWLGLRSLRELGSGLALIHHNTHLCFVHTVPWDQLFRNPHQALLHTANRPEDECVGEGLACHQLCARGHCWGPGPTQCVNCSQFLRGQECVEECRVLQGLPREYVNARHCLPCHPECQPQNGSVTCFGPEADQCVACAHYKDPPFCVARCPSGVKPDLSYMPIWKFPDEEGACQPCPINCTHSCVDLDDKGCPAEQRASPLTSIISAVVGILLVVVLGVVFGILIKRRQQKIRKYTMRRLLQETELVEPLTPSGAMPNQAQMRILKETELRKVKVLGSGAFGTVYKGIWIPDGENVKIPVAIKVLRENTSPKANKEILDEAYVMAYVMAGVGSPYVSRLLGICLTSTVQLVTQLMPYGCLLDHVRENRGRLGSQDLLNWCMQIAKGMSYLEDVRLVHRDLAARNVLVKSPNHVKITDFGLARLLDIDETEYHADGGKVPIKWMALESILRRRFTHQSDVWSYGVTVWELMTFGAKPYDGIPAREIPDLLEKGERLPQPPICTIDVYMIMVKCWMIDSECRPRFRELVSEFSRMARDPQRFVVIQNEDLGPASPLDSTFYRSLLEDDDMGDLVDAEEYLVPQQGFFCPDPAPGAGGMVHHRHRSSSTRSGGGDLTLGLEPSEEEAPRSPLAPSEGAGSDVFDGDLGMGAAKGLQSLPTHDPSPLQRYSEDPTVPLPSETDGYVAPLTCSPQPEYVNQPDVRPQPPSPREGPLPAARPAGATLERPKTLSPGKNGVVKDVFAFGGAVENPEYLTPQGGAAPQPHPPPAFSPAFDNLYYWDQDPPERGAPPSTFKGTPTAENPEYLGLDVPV
T2 sequence (P04626 23-1255): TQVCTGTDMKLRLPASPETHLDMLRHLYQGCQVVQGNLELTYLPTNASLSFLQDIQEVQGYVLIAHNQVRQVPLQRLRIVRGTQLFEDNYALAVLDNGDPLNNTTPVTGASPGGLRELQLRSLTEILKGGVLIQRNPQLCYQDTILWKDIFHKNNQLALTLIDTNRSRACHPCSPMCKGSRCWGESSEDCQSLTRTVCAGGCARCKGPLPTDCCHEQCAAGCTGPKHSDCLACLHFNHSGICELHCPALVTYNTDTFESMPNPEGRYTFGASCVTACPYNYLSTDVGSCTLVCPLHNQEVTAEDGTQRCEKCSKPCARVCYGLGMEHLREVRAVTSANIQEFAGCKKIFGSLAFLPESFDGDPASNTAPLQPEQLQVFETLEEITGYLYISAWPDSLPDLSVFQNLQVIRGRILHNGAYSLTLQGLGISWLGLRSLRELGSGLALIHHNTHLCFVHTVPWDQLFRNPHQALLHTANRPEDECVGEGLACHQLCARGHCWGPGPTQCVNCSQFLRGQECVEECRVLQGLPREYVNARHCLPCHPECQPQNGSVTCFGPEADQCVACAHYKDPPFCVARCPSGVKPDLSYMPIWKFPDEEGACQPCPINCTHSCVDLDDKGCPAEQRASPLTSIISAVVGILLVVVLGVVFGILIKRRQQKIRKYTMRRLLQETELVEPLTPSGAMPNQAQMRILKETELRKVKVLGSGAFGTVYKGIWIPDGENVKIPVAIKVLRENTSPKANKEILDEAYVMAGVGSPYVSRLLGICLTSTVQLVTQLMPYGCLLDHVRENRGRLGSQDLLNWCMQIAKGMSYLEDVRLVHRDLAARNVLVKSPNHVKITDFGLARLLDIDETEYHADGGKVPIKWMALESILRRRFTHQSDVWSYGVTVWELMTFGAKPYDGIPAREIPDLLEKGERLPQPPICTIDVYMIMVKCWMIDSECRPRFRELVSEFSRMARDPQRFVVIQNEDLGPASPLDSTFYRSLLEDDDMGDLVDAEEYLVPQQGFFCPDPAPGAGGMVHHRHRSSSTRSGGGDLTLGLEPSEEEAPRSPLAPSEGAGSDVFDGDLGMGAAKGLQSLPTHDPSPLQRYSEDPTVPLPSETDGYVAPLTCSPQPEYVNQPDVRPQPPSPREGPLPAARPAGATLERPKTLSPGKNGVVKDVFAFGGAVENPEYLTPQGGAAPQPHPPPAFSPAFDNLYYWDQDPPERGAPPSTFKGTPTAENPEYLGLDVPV

Consider `Cc1cc(Nc2ncnc3cnc(N4CC(C)/C(=C\CN(C)C)C4=O)cc23)c(F)cc1Oc1ccc2c(c1)nnn2C` (single isomer, unassigned) [Example S115, Enantiomer #2, (3E)-3-[2-(dimethylamino)ethylidene]-1-[4-({2-fluoro-5-methyl-4-[(1-methyl-1,2,3-benzotriazol-5-yl)oxy]phenyl}amino)pyrido[3,4-d]pyrimidin-6-yl]-4-methylpyrrolidin-2-one], for which the IC50 in assay [1] is greater than 10000 nM; in assay [2], 273 nM. The GI50 in assay [3] worked out at 286 nM.

`CC1CN(c2cc3c(Nc4ccc(Oc5ccc6c(c5)nnn6C)c(F)c4)ncnc3cn2)C(=O)/C1=C/CN(C)C` (single isomer, unassigned) [Example S117, Enantiomer #1, (E)-3-(2-(dimethylamino)ethylidene)-1-(4-((3-fluoro-4-((1-methyl-1H-benzo[d][1,2,3]triazol-5-yl)oxy)phenyl)amino)pyrido[3,4-d]pyrimidin-6-yl)-4-methylpyrrolidin-2-one]: the values for the IC50 in assay [1] and in assay [2] were 968 nM and 40 nM, respectively. In addition, the GI50 in assay [3] is 12 nM.

For `Cc1cc(Nc2ncnc3ccc(N4C(=O)C(=CCN(C)C)C5CC54)nc23)ccc1Oc1ccn2ncnc2c1` (single isomer, unassigned) [Example S108, Enantiomer #1, 4-[2-(dimethylamino)ethylidene]-2-{4-[(3-methyl-4-{[1,2,4]triazolo[1,5-a]pyridin-7-yloxy}phenyl)amino]pyrido[3,2-d]pyrimidin-6-yl}-2-azabicyclo[3.1.0]hexan-3-one], the IC50 in assay [1] is 6680 nM; in assay [2], 19.1 nM. Also, the GI50 in assay [3] came to 54 nM.

Consider `C=C1CCN(c2cc3c(Nc4ccc(Oc5ccn6ncnc6c5)c(C)c4)ncnc3cc2OCCN(C)C)C1=O` [Compound 56, 1-{7-[2-(dimethylamino)ethoxy]-4-[(3-methyl-4-{[1,2,4]triazolo[1,5-a]pyridin-7-yloxy}phenyl)amino]quinazolin-6-yl}-3-methylidenepyrrolidin-2-one], for which the results for the half-maximal inhibitory concentration (IC50) in assay [1] and in assay [2] were greater than 10000 nM and 6520 nM, respectively. In addition, in assay [3], the GI50 is greater than 500 nM.

In the case of `C=C1C(=O)N(c2cc3c(Nc4ccc(Oc5ccn6ncnc6c5)c(C)c4)ncnc3cn2)C2CC12` (single isomer, unassigned; enantiomer 1) [Example S40, Enantiomer # 1, 2-{4-[(3-methyl-4-{[1,2,4]triazolo[1,5-a]pyridin-7-yloxy}phenyl)amino]pyrido[3,4-d]pyrimidin-6-yl}-4-methylidene-2-azabicyclo[3.1.0]hexan-3-one Enantiomer 1], the IC50 amounted to 103 nM in assay [1] and 9.9 nM in assay [2]. Further, in assay [3], the GI50 came to 3.47 nM.

As to `C=C1CCCN(c2cc3c(Nc4ccc(Oc5ccc6c(c5)ncn6C)c(C)c4)ncnc3cn2)C1=O` [Compound 127, 1-[4-({3-methyl-4-[(1-methyl-1,3-benzodiazol-5-yl)oxy]phenyl}amino)pyrido[3,4-d]pyrimidin-6-yl]-3-methylidenepiperidin-2-one], the IC50 was found to be 1200 nM in assay [1] and 27 nM in assay [2]. Further, the GI50 in assay [3] worked out at 24.3 nM.

For the compound `Cc1cc(Nc2ncnc3cnc(N4CC/C(=C\CN(C)C)C4=O)cc23)ccc1Oc1ccn2c(C)cnc2c1` [Compound 82, (3E)-3-[2-(dimethylamino)ethylidene]-1-(4-{[3-methyl-4-({3-methylimidazo[1,2-a]pyridin-7-yl}oxy)phenyl]amino}pyrido[3,4-d]pyrimidin-6-yl)pyrrolidin-2-one], the IC50 in assay [1] worked out at 3990 nM; in assay [2] it was 54.1 nM. In addition, the GI50 in assay [3] is 6.39 nM.

For the compound `Cc1cc(Nc2ncnc3ccc(N4CC(C)C(=CCN(C)C)C4=O)nc23)ccc1Oc1ccn2ncnc2c1` (single isomer, unassigned) [Example S98, Enantiomer #1, 3-[2-(dimethylamino)ethylidene]-4-methyl-1-{4-[(3-methyl-4-{[1,2,4]triazolo[1,5-a]pyridin-7-yloxy}phenyl)amino]pyrido[3,2-d]pyrimidin-6-yl}pyrrolidin-2-one], the 50% inhibitory concentration (IC50) stood at 158 nM in assay [1] and 11.9 nM in assay [2]. Besides, the GI50 in assay [3] turned out to be 1.13 nM.

Regarding `Cc1cc(Nc2ncnc3ccc(N4CC/C(=C\CCN(C)C)C4=O)nc23)ccc1Oc1ccc2c(c1)ncn2C` [Compound 53, (3E)-3-[3-(dimethylamino)propylidene]-1-[4-({3-methyl-4-[(1-methyl-1,3-benzodiazol-5-yl)oxy]phenyl}amino)pyrido[3,2-d]pyrimidin-6-yl]pyrrolidin-2-one], the values for the IC50 in assay [1] and in assay [2] were 76 nM and 35.6 nM, respectively. Also, the GI50 in assay [3] was determined as 2.05 nM.

Regarding `Cc1cc(Nc2ncnc3ccc(N4CC/C(=C\CCN(C)C)C4=O)cc23)ccc1Oc1ccc2c(c1)ncn2C` [Compound 44, (3E)-3-[3-(dimethylamino)propylidene]-1-[4-({3-methyl-4-[(1-methyl-1,3-benzodiazol-5-yl)oxy]phenyl}amino)quinazolin-6-yl]pyrrolidin-2-one], the half-inhibitory concentration (IC50) was 1940 nM in assay [1] and 26.2 nM in assay [2]. For the same compound, the GI50 in assay [3] turned out to be 14.5 nM.

Take `CCc1ccc(Oc2ccc(Nc3ncnc4cnc(N5CC/C(=C\CN(C)C)C5=O)cc34)cc2C)cn1` [Compound 73, (E)-3-(2-(dimethylamino)ethylidene)-1-(4-((4-((6-ethylpyridin-3-yl)oxy)-3-methylphenyl)amino)pyrido[3,4-d]pyrimidin-6-yl)pyrrolidin-2-one]: the IC50 in assay [1] amounted to 514 nM; in assay [2], 41.5 nM. Moreover, in assay [3], the GI50 came to 22 nM.

`C=C1CCN(c2cc3c(Nc4ccc(Oc5ccn6ncnc6c5)c(C)c4)ncnc3cn2)C1=O` [Compound 28, 1-(4-((4-([1,2,4]triazolo[1,5-a]pyridin-7-yloxy)-3-methylphenyl)amino)pyrido[3,4-d]pyrimidin-6-yl)-3-methylenepyrrolidin-2-one]: the half-inhibitory concentration (IC50) in assay [1] worked out at 355 nM; in assay [2], 7.77 nM. In addition, in assay [3], the GI50 came out at 5.32 nM.

In the case of `Cc1cc(Nc2ncnc3ccc(N4CC(C)C(=CCN(C)C)C4=O)nc23)ccc1Oc1ccc2c(c1)nnn2C` (single isomer, unassigned) [Example S126, Enantiomer #1, 3-[2-(dimethylamino)ethylidene]-4-methyl-1-[4-({3-methyl-4-[(1-methyl-1,2,3-benzotriazol-5-yl)oxy]phenyl}amino)pyrido[3,2-d]pyrimidin-6-yl]pyrrolidin-2-one], the IC50 in assay [1] worked out at 299 nM; in assay [2], 40.9 nM. For the same compound, the GI50 in assay [3] was 2.04 nM.

Take `C=C1CCN(c2cc3c(Nc4ccc(Oc5ccc6c(c5)ncn6C)c(C)c4)ncnc3cn2)C1=O` [Compound 39, 1-(4-((3-methyl-4-((1-methyl-1H-benzo[d]imidazol-5-yl)oxy)phenyl)amino)pyrido[3,4-d]pyrimidin-6-yl)-3-methylenepyrrolidin-2-one]: the 50% inhibitory concentration (IC50) was determined as 497 nM in assay [1] and 36.2 nM in assay [2]. Further, the GI50 in assay [3] turned out to be 14.6 nM.

As for `CN(C)C/C=C1\CCN(c2ccc3ncnc(Nc4ccc(Oc5ccc6c(c5)ncn6C)cc4)c3n2)C1=O` [Compound 92, (3E)-3-[2-(dimethylamino)ethylidene]-1-[4-({4-[(1-methyl-1,3-benzodiazol-5-yl)oxy]phenyl}amino)pyrido[3,2-d]pyrimidin-6-yl]pyrrolidin-2-one], the IC50 in assay [1] is greater than 10000 nM; in assay [2], 21.3 nM. The GI50 in assay [3] worked out at 3.12 nM.

Take `Cc1cc(Nc2ncnc3ccc(N4CC/C(=C\CN(C)C)C4=O)nc23)ccc1Oc1ccc2c(c1)nnn2C` [Compound 68, (3E)-3-[2-(dimethylamino)ethylidene]-1-[4-({3-methyl-4-[(1-methyl-1,2,3-benzotriazol-5-yl)oxy]phenyl}amino)pyrido[3,2-d]pyrimidin-6-yl]pyrrolidin-2-one]: the IC50 in assay [1] was 973 nM; in assay [2], 30.5 nM. Also, the GI50 in assay [3] is 3.81 nM.

On to `[2H]C([2H])([2H])n1cnc2cc(Oc3ccc(Nc4ncnc5ccc(N6CC/C(=C\CN(C)C)C6=O)nc45)cc3C)ccc21` [Compound 119, (E)-3-(2-(dimethylamino)ethylidene)-1-(4-((3-methyl-4-((1-(methyl-d3)-1H-benzo[d]imidazol-5-yl)oxy)phenyl)amino)pyrido[3,2-d]pyrimidin-6-yl)pyrrolidin-2-one], for which the IC50 turned out to be 521 nM in assay [1] and 15.4 nM in assay [2]. In addition, the GI50 in assay [3] was 1.18 nM.

With `Cc1c(Oc2ccc3c(c2)ncn3C)ccc(Nc2ncnc3cnc(N4CC/C(=C\CN(C)C)C4=O)cc23)c1F` [Compound 77, (3E)-3-[2-(dimethylamino)ethylidene]-1-[4-({2-fluoro-3-methyl-4-[(1-methyl-1,3-benzodiazol-5-yl)oxy]phenyl}amino)pyrido[3,4-d]pyrimidin-6-yl]pyrrolidin-2-one], the IC50 is 7490 nM in assay [1] and 18.4 nM in assay [2]. Moreover, the GI50 in assay [3] was 3.61 nM.

By IC50 is commonly meant the point on the concentration scale where inhibition reaches its midpoint. Read a low IC50 as greater potency.
